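The compound was tested at five concentrations on cells cultured in 96-well plates, with a 48-hour exposure period. Here, GI50 denotes the concentration required for 50% inhibition of growth.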 Calls of active or inactive are those of the source. Rule as the data show it: active = GI50 up to about 1.1 µM and inactive = higher.
Experiments:
Test in all cases: growth of human tumour cells (NCI), 48 h
A498 = tested on: A498
A549 = tested on: A549
ACHN = tested on: ACHN
CAKI-1 = tested on: CAKI-1
CCRF-CEM = tested on: CCRF-CEM
COLO 205 = tested on: COLO 205
DU-145 = tested on: DU-145
EKVX = tested on: EKVX
HCC 2998 = tested on: HCC 2998
HCT-15 = tested on: HCT-15
HL-60 = tested on: HL-60
HOP-62 = tested on: HOP-62
HOP-92 = tested on: HOP-92
HT-29 = tested on: HT-29
Hs-578T = tested on: Hs-578T
IGROV-1 = tested on: IGROV-1
K562 = tested on: K562
KM12 = tested on: KM12
LOX IMVI = tested on: LOX IMVI
M14 = tested on: M14
MCF7 = tested on: MCF7
MDA-MB-231 = tested on: MDA-MB-231
MDA-MB-435 = tested on: MDA-MB-435
MDA-N = tested on: MDA-N
MOLT-4 = tested on: MOLT-4
Malme-3M = tested on: Malme-3M
NCI-H226 = tested on: NCI-H226
NCI-H23 = tested on: NCI-H23
NCI-H460 = tested on: NCI-H460
NCI-H522 = tested on: NCI-H522
NCI/ADR-RES = tested on: NCI/ADR-RES
OVCAR-3 = tested on: OVCAR-3
OVCAR-4 = tested on: OVCAR-4
OVCAR-5 = tested on: OVCAR-5
OVCAR-8 = tested on: OVCAR-8
PC-3 = tested on: PC-3
RPMI-8226 = tested on: RPMI-8226
RXF 393 = tested on: RXF 393
SF-268 = tested on: SF-268
SF-295 = tested on: SF-295
SF-539 = tested on: SF-539
SK-MEL-28 = tested on: SK-MEL-28
SK-MEL-2 = tested on: SK-MEL-2
SK-MEL-5 = tested on: SK-MEL-5
SK-OV-3 = tested on: SK-OV-3
SNB-19 = tested on: SNB-19
SNB-75 = tested on: SNB-75
SR = tested on: SR
SW-620 = tested on: SW-620
T47D = tested on: T47D
TK-10 = tested on: TK-10
U-251 = tested on: U-251
UACC-257 = tested on: UACC-257
UACC-62 = tested on: UACC-62
UO-31 = tested on: UO-31
786-0 = tested on: 786-0
BT-549 = tested on: BT-549
HCT-116 = tested on: HCT-116
SN12C = tested on: SN12C

## Nc1n[nH]c(Nc2ccc(Cl)cc2)c1P(=O)(c1ccccc1)c1ccccc1
A498
  GI50: 37.8 µM (inactive)
A549
  GI50: 23.9 µM (inactive)
ACHN
  GI50: 34.4 µM (inactive)
CAKI-1
  GI50: 44.8 µM (inactive)
CCRF-CEM
  GI50: 28.6 µM (inactive)
COLO 205
  GI50: 49.4 µM (inactive)
DU-145
  GI50: 37.7 µM (inactive)
EKVX
  GI50: 35.2 µM (inactive)
HCC 2998
  GI50: 24.7 µM (inactive)
HCT-15
  GI50: 28.6 µM
HL-60
  GI50: 25.8 µM (inactive)
HOP-62
  GI50: 20.2 µM (inactive)
HOP-92
  GI50: 20.8 µM (inactive)
HT-29
  GI50: 24 µM (inactive)
Hs-578T
  GI50: 14.8 µM (inactive)
IGROV-1
  GI50: 19.1 µM (inactive)
K562
  GI50: 64.9 µM (inactive)
KM12
  GI50: 17.4 µM (inactive)
LOX IMVI
  GI50: 31.6 µM (inactive)
M14
  GI50: 21.3 µM (inactive)
MCF7
  GI50: 29 µM (inactive)
MDA-MB-231
  GI50: 19.1 µM (inactive)
MDA-MB-435
  GI50: 19.1 µM (inactive)
MDA-N
  GI50: 11 µM (inactive)
MOLT-4
  GI50: 27.2 µM (inactive)
Malme-3M
  GI50: 21.5 µM (inactive)
NCI-H226
  GI50: 24.3 µM (inactive)
NCI-H23
  GI50: 30.4 µM (inactive)
NCI-H460
  GI50: 21.3 µM (inactive)
NCI-H522
  GI50: 20.2 µM (inactive)
NCI/ADR-RES
  GI50: 20.7 µM (inactive)
OVCAR-3
  GI50: 18.1 µM (inactive)
OVCAR-4
  GI50: 22 µM (inactive)
OVCAR-5
  GI50: 18.8 µM (inactive)
OVCAR-8
  GI50: 18.4 µM (inactive)
PC-3
  GI50: 19.9 µM (inactive)
RPMI-8226
  GI50: 39.5 µM (inactive)
RXF 393
  GI50: 20.9 µM (inactive)
SF-268
  GI50: 15.2 µM (inactive)
SF-295
  GI50: 18.6 µM (inactive)
SF-539
  GI50: 21.8 µM (inactive)
SK-MEL-28
  GI50: 25.7 µM (inactive)
SK-MEL-2
  GI50: 19.9 µM (inactive)
SK-MEL-5
  GI50: 20.9 µM (inactive)
SK-OV-3
  GI50: 30.8 µM (inactive)
SNB-19
  GI50: 26.7 µM (inactive)
SNB-75
  GI50: 21.6 µM (inactive)
SR
  GI50: 53.1 µM (inactive)
SW-620
  GI50: 34.3 µM (inactive)
T47D
  GI50: 58.7 µM (inactive)
TK-10
  GI50: 30.1 µM (inactive)
U-251
  GI50: 30.3 µM (inactive)
UACC-257
  GI50: 31.3 µM (inactive)
UACC-62
  GI50: 22.2 µM (inactive)
UO-31
  GI50: 29.4 µM (inactive)

## N#CC(c1nc2ccccc2s1)c1nc(Cl)ncc1Br (configuration not stated)
786-0
  GI50: 30.3 µM (inactive)
A498
  GI50: > 100 µM (inactive)
A549
  GI50: 46.5 µM (inactive)
ACHN
  GI50: 28.2 µM (inactive)
BT-549
  GI50: 25.2 µM (inactive)
CAKI-1
  GI50: 33.4 µM (inactive)
COLO 205
  GI50: 46.3 µM (inactive)
DU-145
  GI50: 45.7 µM (inactive)
EKVX
  GI50: 41.8 µM (inactive)
HCT-116
  GI50: 23 µM (inactive)
HCT-15
  GI50: 29.1 µM
HOP-62
  GI50: 34.2 µM (inactive)
HOP-92
  GI50: 18.2 µM (inactive)
HT-29
  GI50: 46.5 µM (inactive)
IGROV-1
  GI50: 28.9 µM (inactive)
KM12
  GI50: 40.1 µM (inactive)
LOX IMVI
  GI50: 29.3 µM (inactive)
M14
  GI50: 44.6 µM (inactive)
MDA-MB-231
  GI50: 39.2 µM (inactive)
MDA-MB-435
  GI50: 50.6 µM (inactive)
MDA-N
  GI50: 36 µM (inactive)
MOLT-4
  GI50: 72.4 µM (inactive)
Malme-3M
  GI50: 41.4 µM (inactive)
NCI-H226
  GI50: 39.5 µM (inactive)
NCI-H23
  GI50: 23.6 µM (inactive)
NCI-H460
  GI50: 46 µM (inactive)
NCI-H522
  GI50: 20.7 µM (inactive)
NCI/ADR-RES
  GI50: 30 µM (inactive)
OVCAR-3
  GI50: 27.2 µM (inactive)
OVCAR-4
  GI50: 47.8 µM (inactive)
OVCAR-5
  GI50: > 100 µM (inactive)
OVCAR-8
  GI50: 30.4 µM (inactive)
RPMI-8226
  GI50: 25.4 µM (inactive)
RXF 393
  GI50: 26.9 µM (inactive)
SF-268
  GI50: 34 µM (inactive)
SF-295
  GI50: 42.2 µM (inactive)
SF-539
  GI50: 31.5 µM (inactive)
SK-MEL-28
  GI50: 97.9 µM (inactive)
SK-MEL-5
  GI50: 19 µM (inactive)
SK-OV-3
  GI50: 36.1 µM (inactive)
SN12C
  GI50: 30.6 µM (inactive)
SNB-19
  GI50: 40.6 µM (inactive)
SNB-75
  GI50: 23.2 µM (inactive)
SW-620
  GI50: 42.6 µM (inactive)
T47D
  GI50: 64.7 µM (inactive)
TK-10
  GI50: 37.3 µM (inactive)
U-251
  GI50: 29.4 µM (inactive)
UACC-257
  GI50: 77.4 µM (inactive)
UO-31
  GI50: 36.7 µM (inactive)

## Cc1ccc(-c2c(C#N)c(S)n(NS(=O)(=O)c3ccc(C)cc3)c(=O)c2C#N)cc1
786-0
  GI50: 29 µM (inactive)
A498
  GI50: 33.7 µM (inactive)
A549
  GI50: 39.2 µM (inactive)
ACHN
  GI50: 20.6 µM (inactive)
BT-549
  GI50: 16.6 µM (inactive)
CAKI-1
  GI50: 28 µM (inactive)
CCRF-CEM
  GI50: 8.02 µM (inactive)
COLO 205
  GI50: 30 µM (inactive)
DU-145
  GI50: 41.8 µM (inactive)
EKVX
  GI50: 23.6 µM (inactive)
HCC 2998
  GI50: 5.19 µM (inactive)
HCT-116
  GI50: 27 µM (inactive)
HCT-15
  GI50: 20.2 µM
HL-60
  GI50: 14.9 µM (inactive)
HOP-92
  GI50: 22.6 µM (inactive)
IGROV-1
  GI50: 16.7 µM (inactive)
K562
  GI50: 35.8 µM (inactive)
KM12
  GI50: 18 µM (inactive)
LOX IMVI
  GI50: 27.2 µM (inactive)
M14
  GI50: 31.3 µM (inactive)
MCF7
  GI50: 31.6 µM (inactive)
MDA-MB-231
  GI50: 29.6 µM (inactive)
MDA-MB-435
  GI50: 22.3 µM (inactive)
MDA-N
  GI50: 35.6 µM (inactive)
MOLT-4
  GI50: 24.2 µM (inactive)
Malme-3M
  GI50: 3.56 µM (inactive)
NCI-H226
  GI50: 11.7 µM (inactive)
NCI-H23
  GI50: 18.5 µM (inactive)
NCI-H522
  GI50: 19.1 µM (inactive)
NCI/ADR-RES
  GI50: 32.8 µM (inactive)
OVCAR-3
  GI50: 34.7 µM (inactive)
OVCAR-4
  GI50: 15.5 µM (inactive)
OVCAR-5
  GI50: 27.4 µM (inactive)
OVCAR-8
  GI50: 21 µM (inactive)
PC-3
  GI50: 22.8 µM (inactive)
RPMI-8226
  GI50: 24.7 µM (inactive)
RXF 393
  GI50: 23.5 µM (inactive)
SF-295
  GI50: 23.1 µM (inactive)
SF-539
  GI50: 20.3 µM (inactive)
SK-MEL-28
  GI50: 22 µM (inactive)
SK-MEL-2
  GI50: 23.3 µM (inactive)
SK-MEL-5
  GI50: 21 µM (inactive)
SK-OV-3
  GI50: 45 µM (inactive)
SN12C
  GI50: 31.5 µM (inactive)
SNB-19
  GI50: 21.6 µM (inactive)
SNB-75
  GI50: 14.3 µM (inactive)
SR
  GI50: 29.6 µM (inactive)
SW-620
  GI50: 19.9 µM (inactive)
TK-10
  GI50: 19.8 µM (inactive)
U-251
  GI50: 18.1 µM (inactive)
UACC-257
  GI50: 40 µM (inactive)
UACC-62
  GI50: 28.5 µM (inactive)
UO-31
  GI50: 17.5 µM (inactive)
